{
  "source": "patent US11833204B2",
  "about": "“Visible light-activatable nanoparticles for cancer immunotherapy and use thereof” (KOREA INSTITUTE OF SCIENCE AND TECHNOLOGY, priority 2021, dated 2023)",
  "key": {"[1]": {"system": "spleen cells isolated from Balb/c mice", "test": "Immune cell activation: treated CT26 cells co-cultured with spleen cells (flow cytometry)", "assay_type": "cell-based", "conditions": "5 μM, co-culture with spleen cells 24 h; versus doxorubicin or verteporfin alone", "protocol": "First, CT26 cells were plated in 100-pi cell culture dishes at a density of 1×10^6 cells/dish and cultured for stabilization for 24 h. Doxorubicin (DOX) (5 μM), verteporfin (VPF) […] or the self-assembled nanoparticles (LT-NPs) (5 μM) were added to each dish. After 24-h culture, one half was exposed by irradiation with visible light using a 671 nm laser at 40 mW for 250 sec (+L) and the other half was not irradiated with visible light for comparison (−L). 1×10^6 spleen cells isolated from Balb/c mice were added to each sample, followed by co-culture for 24 h (FIG. 4I).\nThe degrees of differentiation into mature dendritic cells and activated T cells in each sample were analyzed using a flow cytometer."}, "CT26 cells [2]": {"system": "CT26 cells", "test": "Immunogenic cell death: extracellular ATP release", "assay_type": "cell-based", "conditions": "CT26, 5 μM, 24 h, +L/−L", "protocol": "(§1) First, CT26 cells were plated in 35 mm cell culture dishes at a density of 1×10^5 cells/dish and doxorubicin (DOX) (5 μM), verteporfin (VPF) (5 μM) or the self-assembled nanoparticles (LT-NPs) (5 μM) were added to each dish. After 24-h culture, one half was exposed by irradiation with visible light using a 671 nm laser at 40 mW for 250 sec (+L) and the other half was not irradiated with visible light for comparison (−L). The immunogenic cell death of the self-assembled nanoparticles (LT-NPs) was evaluated using the cells and the cell culture media.\nATP was analyzed using a commercially available ATP assay kit (Beyotime Biotechnology) according to the manufacturer's protocol."}, "CT26 cells [3]": {"system": "CT26 cells", "test": "Immunogenic cell death: extracellular HSP70 and HMGB1 (Western blotting)", "assay_type": "cell-based", "conditions": "CT26, 5 μM, 24 h, +L/−L", "protocol": "as §1\nBefore staining the cells with APC-conjugated CRT antibody, culture media were separated from the cells and the extracellular expression levels of HMGB1 and HSP70 were analyzed by Western blotting.\nEach cell culture medium was treated with RIPA buffer (Cell Signaling Technology) at 4° C. for 30 min and the protein amount of the lysate was analyzed using a Pierce BCA protein assay kit (Thermo Fisher Scientific) according to the manufacturer's protocol. After SDS-PAGE, proteins were transferred to a PVDF membrane (Bio-Rad), which was then treated with Tris-buffered saline (TBS-T) containing 5% skim milk and 0.1% Tween-20. The membrane was incubated with primary antibodies at 4° C. overnight. HSP70 and HMGB1 antibodies were used as the primary antibodies. The membrane was washed with TBS-T and incubated with a secondary antibody at room temperature for 1 h. The membrane was washed with TBS-T, treated with EZ-Western Lumi Pico or Femto reagent (DoGen), and analyzed using Fusion-Solo software (Vilber) according to the manufacturer's protocol to determine band intensities."}, "CT26 cells [4]": {"system": "CT26 cells", "test": "CT26 cell viability (CCK) after visible light irradiation", "assay_type": "cell-based", "conditions": "CT26, 0-10 μM, 24 h, 671 nm laser 40 mW 250 sec", "protocol": "After CT26 cells were plated in a 96-well plate at a density of 5×10^3 cells/well, the wells were treated with doxorubicin (DOX) (0, 0.01, 0.1, 1, and or 10 μM), verteporfin (VPF) (0, 0.01, 0.1, 1, and 10 μM), mixtures thereof (DOX+VPF), and the self-assembled nanoparticles (LT-NPs) (0, 0.01, 0.1, 1, and 10 μM). After culture for 24 h, cells were exposed by irradiation with visible light using a 671 nm laser at 40 mW for 250 sec. Then, a cell culture medium containing […] of CCK solution was added to each well. Cells were further cultured for 20 min and the absorbance of the 96-well plate was measured at 450 nm on a VERSAmax™ microplate reader (Molecular Devices Corp., Sunnyvale, Calif.)."}, "CT26 cells [5]": {"system": "CT26 cells", "test": "Immunogenic cell death: calreticulin expression", "assay_type": "cell-based", "conditions": "CT26, 5 μM, 24 h, +L/−L", "protocol": "as §1\nCells were stained with APC-conjugated CRT antibody for 12 h and observed with a confocal fluorescence microscope."}, "CT26 cells [6]": {"system": "CT26 cells", "test": "Apoptosis and necrosis of CT26 cells (Annexin V/PI flow cytometry)", "assay_type": "cell-based", "conditions": "CT26, visible light", "protocol": "The degrees of apoptosis and necrosis of cancer cells were quantitatively analyzed to accurately evaluate the anticancer effect of the self-assembled nanoparticles (LT-NPs). First, CT26 cells treated with doxorubicin (DOX), verteporfin (VPF), a mixture of doxorubicin and verteporfin (VPF+DOX) or the self-assembled nanoparticles (LT-NPs) and a laser were prepared as above and treated with 5 μg of Annexin V-FITC and 10 μg of PI solution for 10 min. Then, cells were cultured with a cell fixative for 10 min and further cultured with DAPI for 20 min. The degrees of apoptosis and necrosis were quantitatively analyzed using a flow cytometer (BD FACSVerse, BD bioscience, USA)."}, "[7]": {"test": "Stability of LT-NPs in mouse plasma (size by DLS)", "assay_type": "in vitro ADME, BALB/c mice", "conditions": "BALB/c mouse plasma, 0-72 h", "protocol": "In this example, the stability of the self-assembled nanoparticles (LT-NPs) in a body fluid was determined. To this end, the self-assembled nanoparticles (LT-NPs) were stored in plasma samples from BALB/c mice for 0, 1, 3, 6, 24, 48, and 72 h and their sizes were measured by dynamic light scattering (DLS)."}},
  "data": [
    {"molecule": "C=CC1=C(C)/C2=C/C3=NC(Cc4[nH]c(c(CCCCC(=O)OC)c4C)CC4N=C(CC1N2)C(C)=C4CCC(=O)N[C@H](Cc1ccccc1)C(=O)N[C@@H](CCCNC(=N)N)C(=O)N[C@H](CCCNC(=N)N)C(=O)NCC(=O)NC1C[C@@H](OC2C[C@](O)(C(=O)CO)Cc4c(O)c5c(c(O)c42)C(=O)c2c(OC)cccc2C5=O)O[C@@H](C)[C@H]1O)[C@@]1(C)C3=CC=C(C(=O)OC)[C@@H]1C(=O)OC", "note": "(some centres unmarked) [LT-NPs, VPF-FRRG(SEQ ID NO: 1)-DOX]", "values": [
      {"measurement": "degree of differentiation into activated T cells", "setting": "[1]", "result": "significantly higher"},
      {"measurement": "degree of differentiation into mature dendritic cells", "setting": "[1]", "result": "significantly higher"},
      {"measurement": "ATP release", "setting": "CT26 cells [2]", "result": "significantly higher"},
      {"measurement": "HMGB-1 release", "setting": "CT26 cells [3]", "result": "significantly higher"},
      {"measurement": "HSP70 release", "setting": "CT26 cells [3]", "result": "significantly higher"},
      {"measurement": "cell viability versus doxorubicin and verteporfin", "setting": "CT26 cells [4]", "result": "no significant differences"},
      {"measurement": "calreticulin expression", "setting": "CT26 cells [5]", "result": "Significantly higher"},
      {"measurement": "degree of apoptosis (and necrosis)", "setting": "CT26 cells [6]", "result": "significantly higher than that caused by the conventional drugs"},
      {"measurement": "proportions of early apoptosis, late apoptosis and necrosis", "setting": "CT26 cells [6]", "result": "lower proportions of late apoptosis and necrosis and a higher proportion of early apoptosis"},
      {"measurement": "degree of apoptosis (and necrosis)", "setting": "CT26 cells [6]; listed as self-assembled nanoparticles", "result": "significantly higher apoptosis and necrosis"},
      {"measurement": "time-dependent change in size in mouse plasma", "setting": "[7]", "result": "stably maintained their morphology in the body fluid"}
    ]}
  ]
}
